Source: publication PMC10224356, “Trisubstituted 1,3,5-Triazines as Histamine H4 Receptor Antagonists with Promising Activity In Vivo” (Molecules, 2023)
“And” between values parts separate entries of the source, which are not always exact repeats. Equal values may be shown once.

Assays:
[1] = molecular target: T1, human histamine H4 receptor (Homo sapiens, UniProt Q9H3N8); assay: [3H]histamine displacement assay, membranes of Sf9 cells expressing hH4R with Gαi2 and Gβ1γ2; assay type: binding; settings: for inhibition at 1 µM: per cent of inhibition at 1 μM, read-out: hH4R inh. at 1 μM; for Ki: Sf9 membranes, mean within 95% CI
T1 construct: made in house; host or cells: Sf9 cells (membrane preparations)
Protocol: The affinity of compounds 2–20 for hH4R was evaluated in a binding assay as previously described. [^3H]Histamine was used as a radioligand and hH4R was expressed in Sf9 cells with G protein Gαi2 and Gβ1γ2 subunits. The pharmacological results represented as Ki values are listed in Table 1 (for alicyclic derivatives) and Table 2 (for aliphatic derivatives). […] Results depended on the substituent in the four positions of a triazine (a main structure).
Affinities of all triazine derivatives were determined in a [^3H] histamine (f.c. 10 nM) displacement assay using membrane preparations from Sf9 cells expressing human H4R and co-expressed with Gαi2 and Gβ1γ2 subunits as described previously. Nonspecific binding was determined in the presence of unlabelled JNJ7777120 ([…]).

hH4R [2] = molecular target: T2, hH4R (Homo sapiens, UniProt Q9H3N8); assay: β-arrestin recruitment assay (LiveBLAzer, Tango-H4-bla U2OS cells); assay type: cell-based; design: expressed in transfected cells; host or cells: Tango-H4-bla U2OS cells; settings: for IC50 / β-arrestin hH4R % of max. Antagonist Activity at 10 µM: antagonist mode; for IC50: histamine 500 nM (EC80), Tango-H4-bla U2OS cells, read-out: β-arrestin hH4R IC50 ± SEM; for Kb: calculated from IC50 by Leff–Dougall variant of Cheng–Prusoff equation, read-out: pKb β-arrestin ± SEM (converted)
Protocol: Compounds were tested using LiveBLAzer^TM assay and Tango-H4-bla U2OS cells, allowing the estimation of the percentage of β-arrestin recruitment in response to tested treatments.
All used media and reagents except DMSO and tested compounds were purchased from ThermoFisher Scientific, Waltham, MA, USA. DMSO was from CarlRoth (Karlsruhe, Germany) and histamine was from Sigma Aldrich (Darmstadt, Germany). […] The day before the experiment cells were collected from the culture flask with trypsin and seeded in 384 well black-wall, clear-bottom plate (PerkinElmer, Waltham, MA, USA) in concentration 10,000 cells/well in FreeStyle medium. After 24 h of incubation, the cells were checked under the microscope and the dilutions of tested compounds were prepared and added to the wells. In agonist mode compounds were added to the wells and plates were placed in the incubator (HERAcell240, Heraeus, Hanau, Germany) for 16 h. In antagonist mode, first, the compounds were added to the wells, plates were incubated for 30 min, then histamine solution (corresponding to EC80—500 nM) was added and plates were put in the incubator for 16 h. After this time β-lactamase substrate mixture was prepared and added to wells (8 µL/well). Cells were incubated for 2 h at room temperature in the dark then the signal was read using an EnSpire microplate reader (PerkinElmer, Waltham, MA, USA). Drawing of dose-dependent curves and IC50 calculation for compounds were made using GraphPad Prism 6 (GraphPad Software, San Diego, CA, USA).

hH4R [3] = molecular target: T2, hH4R; assay: cAMP accumulation assay (LANCE Ultra cAMP, CHO-K1 cells stably expressing hH4R); assay type: cell-based; design: expressed in transfected cells; settings: for IC50: forskolin 10 µM, histamine 140 nM, CHO-K1 hH4R cells, read-out: cAMP hH4R IC50 ± SEM; for Kb: calculated from IC50 by Leff–Dougall variant of Cheng–Prusoff equation, read-out: pKb cAMP ± SEM (converted)
Protocol: Intrinsic activity via the Gα subunit was measured using a LANCE Ultra cAMP detection kit and CHO-K1 cells stably expressing hH4R. Adenyl cyclase was stimulated by forskolin (10 µM).
Intrinsic activity in G protein-dependent pathway was measured with homogenous TR-FRET immunoassay, using LANCE Ultra cAMP kit and CHO-K1 H4R cell line or γ-irradiated recombinant CHO-K1 H4R cells (all from PerkinElmer). […] If the CHO-K1 H4R cell line was used it had been cultivated in DMEM/F12 10% FBS 400 µg/mL geneticin and passaged three times a week. […] The antagonist activity was measured in a white, opaque, 384-well microplate (PerkinElmer) with a total volume of 20 µL. […] After incubation, 5 µL of europium chelate-labelled cAMP tracer and 5 µl of ULight-labelled anti-cAMP mAb working solutions were added, mixed and incubated for 1 h. TR-FRET signal was read using a microplate reader (PerkinElmer, Waltham, MA, USA).

hH4R [4] = molecular target: T2, hH4R; assay: as above; assay type: cell-based; design: expressed in transfected cells; settings: antagonist mode

T1 sequence (Q9H3N8 whole entry): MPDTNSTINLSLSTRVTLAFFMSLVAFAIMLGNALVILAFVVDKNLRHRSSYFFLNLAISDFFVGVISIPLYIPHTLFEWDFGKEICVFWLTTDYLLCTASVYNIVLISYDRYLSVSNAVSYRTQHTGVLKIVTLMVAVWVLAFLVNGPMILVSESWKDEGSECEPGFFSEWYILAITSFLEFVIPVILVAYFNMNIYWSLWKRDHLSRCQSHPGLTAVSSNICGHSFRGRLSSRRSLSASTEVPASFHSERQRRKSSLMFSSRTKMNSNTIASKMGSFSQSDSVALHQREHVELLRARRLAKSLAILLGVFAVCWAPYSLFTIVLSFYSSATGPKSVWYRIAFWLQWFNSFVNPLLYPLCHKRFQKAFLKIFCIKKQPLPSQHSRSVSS
T2 sequence (Q9H3N8 whole entry): as above

SMILES	inhibition at 1 µM [1] [%]	melting point [°C]	IC50 (hH4R [2]) [nM]	β-arrestin hH4R % of max. Antagonist Activity at 10 µM (hH4R [2]) [%]	cAMP hH4R % of max. Antagonist Activity at 10 µM (hH4R [3]; at 10 µM, antagonist mode) [%]	Ki [1]	IC50 (hH4R [3]; antagonist mode) [nM]	Kb (hH4R [3]) [nM]	cAMP hH4R % of max. Antagonist Activity at 10 µM (hH4R [4]) [%]	Kb (hH4R [2]) [nM]
CC/C=C/Cc1nc(N)nc(N2CCN(C)CC2)n1 [Compound 20, (E)-4-(4-Methylpiperazin-1-yl)-6-(pent-2-enyl)-1,3,5-triazin-2-amine]	6	117 to 119	376 ± 9	101	–	–	–	–	–	–
S=C(NC1CCCCC1)N1CCC(c2cnc[nH]2)CC1 [Thioperamide, reference compound]	–	–	–	102	111	–	–	–	–	–
CN1CCN(c2nc(N)nc(C3CCCC3)n2)CC1 [Compound 4, 4-Cyclopentyl-6-(4-methylpiperazin-1-yl)-1,3,5-triazin-2-amine]	–	163 to 169	68.8 ± 2	95	–	1240 nM	102 ± 2	36.3	95	11.5
CN1CCN(c2nc(N)nc(CC34CC5CC(CC(C5)C3)C4)n2)CC1 [Compound 9, 4-(1-Adamantylmethyl)-6-(4-methylpiperazin-1-yl)-1,3,5-triazin-2-amine]	43	200 to 201	–	–	–	–	–	–	–	–
CN1CCN(c2nc(N)nc(CC3C=CCC3)n2)CC1 (centres unmarked) [Compound 7, 4-(Cyclopent-2-enylmethyl)-6-(4-methylpiperazin-1-yl)-1,3,5-triazin-2-amine]	–	166 to 169	14 ± 1	103	–	96 nM	33 ± 2	11.5	104	2.34
CN1CCN(c2nc(N)nc(CC3CCCCC3)n2)CC1 [TR-AF-49]	–	–	68 ± 7	99	–	–	271 ± 11	95.5	98	11.2
CCCC(C)c1nc(N)nc(N2CCN(C)CC2)n1 (centres unmarked) [Compound 11, 4-(4-Methylpiperazin-1-yl)-6-(pentan-2-yl)-1,3,5-triazin-2-amine]	–	138 to 140	97 ± 16	97	–	353 nM	640 ± 49	224	100	15.8
CN1CCN(c2nc(N)nc(C3CCC3)n2)CC1 [Compound 3, 4-Cyclobutyl-6-(4-methylpiperazin-1-yl)-1,3,5-triazin-2-amine]	–	127 to 132	100 ± 15	87	–	~200 nM and 200 nM	104 ± 17	37.2	109	16.6
CC(C)CCc1nc(N)nc(N2CCN(C)CC2)n1 [Compound 14, 4-Isopentyl-6-(4-methylpiperazin-1-yl)-1,3,5-triazin-2-amine]	–	123 to 126	24 ± 3	101	–	203 nM	43 ± 17	13.8	107	3.89
CCCCCc1nc(N)nc(N2CCN(C)CC2)n1 [Compound 19, 4-(4-Methylpiperazin-1-yl)-6-pentyl-1,3,5-triazin-2-amine]	–	173 to 178	34.9 ± 7	99	–	393 nM	419 ± 77	145	97	5.62
C=CCCc1nc(N)nc(N2CCN(C)CC2)n1 [Compound 16, 4-(But-3-enyl)-6-(4-methylpiperazin-1-yl)-1,3,5-triazin-2-amine]	–	132 to 133	146 ± 38	94	–	319 nM	635 ± 123	219	104	23.4
C=CCC(C)c1nc(N)nc(N2CCN(C)CC2)n1 (centres unmarked) [Compound 17, 4-(4-Methylpiperazin-1-yl)-6-(pent-4-en-2yl)-1,3,5-triazin-2-amine]	–	134 to 136	744 ± 139	92	–	263 nM	721 ± 70	257	94	117
CN1CCN(c2nc(N)nc(C3CC3)n2)CC1 [Compound 2, 4-Cyclopropyl-6-(4-methylpiperazin-1-yl)-1,3,5-triazin-2-amine]	–	156 to 159	287 ± 30	96	–	574 nM	847 ± 53	302	99	47.9
CN1CCN(c2nc(N)nc(C3CCCCC3)n2)CC1 [Compound 5, 4-Cyclohexyl-6-(4-methylpiperazin-1-yl)-1,3,5-triazin-2-amine]	–	133 to 138	101 ± 10	92	–	432 nM	219 ± 24	75.9	98	16.6
C=CC(C)Cc1nc(N)nc(N2CCN(C)CC2)n1 (centres unmarked) [Compound 18, 4-(2-Methylbut-3-enyl)-6-(4-methylpiperazin-1-yl)-1,3,5-triazin-2-amine]	–	113 to 115	66.6 ± 3	101	–	262 nM	188 ± 45	64.6	104	11
CCCCc1nc(N)nc(N2CCN(C)CC2)n1 [Compound 10, 4-Butyl-6-(4-methylpiperazin-1-yl)-1,3,5-triazin-2-amine]	–	117 to 118	82 ± 5	96	–	192 nM	445 ± 10	158	105	13.5
CC/C=C/c1nc(N)nc(N2CCN(C)CC2)n1 [Compound 15, (E) 4-(But-1-enyl)-6-(4-methylpiperazin-1-yl)-1,3,5-triazin-2-amine]	–	125 to 126	–	–	–	1490 nM	–	–	–	–
CCC(C)Cc1nc(N)nc(N2CCN(C)CC2)n1 (centres unmarked) [Compound 12, 4-(2-Methylbutyl)-6-(4-methylpiperazin-1-yl)-1,3,5-triazin-2-amine]	–	115 to 116	38 ± 7	100	–	321 nM	132 ± 9	46.8	111	6.17
COC(C)Cc1nc(N)nc(N2CCN(C)CC2)n1 (centres unmarked) [Compound 13, 4-(2-Methoxypropyl)-6-(4-methylpiperazin-1-yl)-1,3,5-triazin-2-amine]	–	148 to 151	–	–	–	4260 nM	–	–	–	–
